Results: patent publication US9393221B2, “Methods and compounds for reducing intracellular lipid storage” (THE GENERAL HOSPITAL CORPORATION, priority 2011, dated 2016)
Structures can show the parent of a compound that is named as a salt.

System: ATGL-KO iPSCs
Assay: High throughput iPSC chemical screening, Oil Red O (ORO) lipid accumulation; for Z-score: test concentration or dose not given here
Type: cell-based, mouse
Conditions: for Z-score: normalized ORO level vs DMSO-treated cells, compound present during 7 days differentiation, 96-well, negative = decrease in lipid accumulation; for Rank in normalized ORO score from screen: glycolytic switch compounds

Compound: CC[N+]1(C)CCCC(OC(=O)C(O)(c2ccccc2)c2ccccc2)C1 (centres unmarked) [Pipenzolate bromide]
- Z-score: −1.06

Compound: CCCC(=O)Nc1ncnc2c1ncn2[C@@H]1O[C@@H]2COP(=O)(O)O[C@H]2[C@H]1OC(=O)CCC [Bucladesine sodium salt]
- Z-score: −0.9927

Compound: NCC1(CC(=O)O)CCCCC1 [Gabapentin]
- Z-score: −0.2478

Compound: CC1=C(/C=C/C(C)=C/C=C/C(C)=C/C(=O)O)C(C)(C)CCC1 [Retinoic acid]
- Z-score: −0.7042

Compound: CCn1cc(C(=O)O)c(=O)c2ccc(C)nc21 [Nalidixic acid sodium salt hydrate]
- Z-score: −0.4868

Compound: O=C(COc1ccc(Cl)cc1)N1CCN(Cc2ccc3c(c2)OCO3)CC1 [Fipexide hydrochloride]
- Z-score: −0.9747

Compound: NC(=O)c1cnccn1 [Pyrazinamide]
- Z-score: −1.0312

Compound: [H]/N=C(\N/C(=N/[H])NCCCCCCNC(=N)NC(=N)Nc1ccc(Cl)cc1)Nc1ccc(Cl)cc1 [Chlorhexidine]
- Z-score: 24.4911

Compound: CN(C(=O)C(Cl)Cl)c1ccc(OC(=O)c2ccco2)cc1 [Diloxanide furoate]
- Z-score: −0.9785

Compound: C[C@]12C[C@H]3S[C@H]3C[C@@H]1CC[C@@H]1[C@@H]2CC[C@]2(C)[C@@H](O)CC[C@@H]12 [Epitiostanol]
- Z-score: −1.7564

Compound: CC1=CC(=O)c2ccccc2C1=O [Menadione]
- Rank in normalized ORO score from screen: 517
- Z-score: −0.29

Compound: CC[C@H]1[C@@H]2C[C@H]3[C@@H]4N(C)c5ccccc5[C@]45C[C@@H]([C@H]2[C@H]5O)N3[C@@H]1O [Ajmaline]
- Z-score: −0.937

Compound: C[C@H]1c2cccc(O)c2C(=O)C2=C(O)[C@]3(O)C(=O)C(C(N)=O)=C(O)[C@@H](N(C)C)[C@@H]3[C@@H](O)[C@@H]21 [Doxycycline hydrochloride]
- Z-score: 2.356

Compound: CN(C/C=C/c1ccccc1)Cc1cccc2ccccc12 [Naftifine hydrochloride]
- Rank in normalized ORO score from screen: 383
- Z-score: −0.6354

Compound: Cl.NCC(O)c1ccc(O)cc1 (racemic) [(+,−)-Octopamine hydrochloride]
- Z-score: 0.9737

Compound: CN(C)c1nc(N(C)C)nc(N(C)C)n1 [Altretamine]
- Rank in normalized ORO score from screen: 814
- Z-score: 0.5601

Compound: COc1ccc(CN(CCN(C)C)c2ccccn2)cc1 [Pyrilamine maleate]
- Z-score: −1.3015

Compound: CC(C)(C)NCC(O)COc1cccc2c1CC(O)C(O)C2 (centres unmarked) [Nadolol]
- Z-score: −1.7201

Compound: CC(=O)OC(C)C[N+](C)(C)C (centres unmarked) [Methacholine chloride]
- Z-score: −0.8044

Compound: CC(=O)Oc1cc(C(C)C)c(OCCN(C)C)cc1C.Cl [Moxisylyte hydrochoride]
- Z-score: −0.4722

Compound: COc1cc(C(=O)OCCCN2CCCN(CCCOC(=O)c3cc(OC)c(OC)c(OC)c3)CC2)cc(OC)c1OC [Dilazep dihydrochloride]
- Z-score: 0.1967

Compound: CCN(CC)C(=S)SSC(=S)N(CC)CC [Disulfiram]
- Z-score: 15.5036

Compound: CNC[C@H](O)[C@@H](O)[C@H](O)[C@H](O)CO [Meglumine]
- Z-score: −1.1536

Compound: Br.C[N+]1([O-])[C@@H]2CC(OC(=O)[C@H](CO)c3ccccc3)C[C@H]1[C@@H]1O[C@@H]12 (some centres unmarked) [Scopolamin-N-oxide hydrobromide]
- Z-score: 0.9998

Compound: CCCCNc1ccc(C(=O)OCCOCCOCCOCCOCCOCCOCCOCCOCCOC)cc1 [Benzonatate]
- Z-score: 0.06563

Compound: Butirosin disulfate salt
- Z-score: 0.2121

Compound: C=C1C/C(=C/C)C(=O)O[C@@H]2CCN3CC=C(COC(=O)[C@]1(C)O)[C@H]23 [Seneciphylline]
- Z-score: −1.7519

Compound: CCc1cc(C(N)=S)ccn1 [Ethionamide]
- Z-score: −0.9932

Compound: CCN(CC)CCOCCOC(=O)C1(c2ccccc2)CCCC1 [Carbetapentane citrate]
- Z-score: 1.581

Compound: CN[C@@H]1[C@@H](O[C@H]2O[C@H](CO)[C@@H](N)[C@H](O)[C@H]2O)OC2C[C@@H](N)[C@@H](O[C@H]3[C@H](O)[C@@H](O)[C@H](N)C[C@@H]3N)OC2[C@@H]1O (some centres unmarked) [Apramycin]
- Z-score: −1.1349

Compound: O=c1cc(-c2ccc(O)c(O)c2)oc2cc(O)cc(O)c12 [Luteolin]
- Z-score: −1.0098

Compound: Cc1ncc(C[n+]2csc(CCO)c2C)c(N)n1 [Thiamine hydrochloride]
- Z-score: 1.576

Compound: CC(=O)[C@H]1CC[C@H]2[C@@H]3C[C@H](C)C4=CC(=O)CC[C@]4(C)[C@H]3[C@@H](O)C[C@]12C [Medrysone]
- Z-score: −0.1611

Compound: CC(=O)OCC(=O)[C@@]1(OC(C)=O)[C@@H](C)C[C@H]2[C@@H]3C[C@H](F)C4=CC(=O)C=C[C@]4(C)[C@@]3(F)[C@@H](O)C[C@@]21C [Diflorasone Diacetate]
- Z-score: 0.6842

Compound: C=C(C)[C@@H]1CC[C@]2(CO)CC[C@]3(C)[C@H](CC[C@@H]4[C@@]5(C)CC[C@H](O)C(C)(C)[C@@H]5CC[C@]43C)[C@@H]12 [Betulin]
- Z-score: −1.4148

Compound: Nc1ccc(C(=O)NCC(=O)O)cc1 [Aminohippuric acid]
- Z-score: −1.1341

Compound: CN(C)Cc1c[nH]c2ccccc12 [Gramine]
- Z-score: 1.618

Compound: COc1ccc(C[C@H](N)C(=O)N[C@H]2[C@@H](O)[C@H](n3cnc4c(N(C)C)ncnc43)O[C@@H]2CO)cc1 [Puromycin dihydrochloride]
- Z-score: 74.4112

Compound: Clc1cccc(Cl)c1N=C1NCCN1 [Clonidine hydrochloride]
- Z-score: 0.04408

Compound: CCOC(=O)n1ccn(C)c1=S [Carbimazole]
- Z-score: −0.836

Compound: CC12CC3CC(C)(C1)CC(N)(C3)C2 [Memantine Hydrochloride]
- Z-score: −1.2487

Compound: NS(=O)(=O)c1cc2c(cc1Cl)NC(C(Cl)Cl)NS2(=O)=O (centres unmarked) [Trichlormethiazide]
- Z-score: −1.2081

Compound: NNc1nncc2ccccc12 [Hydralazine hydrochloride]
- Z-score: 9.342

Compound: CN(C)CCCN1c2ccccc2CCc2ccccc21 [Imipramine hydrochloride]
- Z-score: 1.459

Compound: C=N[C@@H](C(=O)N[C@@H]1C(=O)N2[C@@H]1SC(C)(C)[C@@H]2C(=O)O)c1ccccc1 [Metampicillin sodium salt]
- Z-score: 0.638

Compound: O=P1(NCCCl)OCCCN1CCCl (centres unmarked) [Ifosfamide]
- Z-score: −1.424

Compound: COc1ccc(C2CNC(=O)C2)cc1OC1CCCC1 (centres unmarked) [Rolipram]
- Z-score: −0.7794

Compound: O=C(O)c1cc(/N=N/c2ccc(S(=O)(=O)Nc3ccccn3)cc2)ccc1O [Sulfasalazine]
- Z-score: −1.0569

Compound: c1cncc([C@@H]2CCCCN2)c1 [Anabasine]
- Z-score: −0.7781

Compound: CC(C)NCC(O)COc1ccc(CCOCC2CC2)cc1 (centres unmarked) [Betaxolol hydrochloride]
- Z-score: 1.393

Compound: CC1(C)S[C@@H]2[C@H](NC(=O)Cc3ccccc3)C(=O)N2[C@H]1C(=O)O.CC1(C)S[C@@H]2[C@H](NC(=O)Cc3ccccc3)C(=O)N2[C@H]1C(=O)O.c1ccc(CNCCNCc2ccccc2)cc1 [Benzathine benzylpenicillin]
- Z-score: 0.238

Compound: O=C(CCCN1CCC2(CC1)C(=O)NCN2c1ccccc1)c1ccc(F)cc1 [Spiperone]
- Z-score: −1.6819

Compound: Cc1ccc(S(=O)(=O)NC(=O)NN2CCCCCC2)cc1 [Tolazamide]
- Z-score: 1.554

Compound: Cc1cc(NS(=O)(=O)c2ccc(N)cc2)no1 [Sulfamethoxazole]
- Z-score: −0.4061

Compound: C=C[C@H]1C[N@@]2CC[C@H]1C[C@@H]2[C@@H](O)c1ccnc2ccc(OC)cc12 [Quinidine hydrochloride monohydrate]
- Z-score: 6.798

Compound: CCC1NC(=O)c2cc(S(N)(=O)=O)c(Cl)cc2N1 (centres unmarked) [Quinethazone]
- Z-score: −0.4993
